{"source": "patent US8241863B2", "about": "“Identification of an evolutionarily conserved pathway mediating transrepression of inflammatory response genes by nuclear receptors” (The Regents of the University of California, priority 2005, dated 2012)", "test_system": "PPARγ-sensitive genes", "assay": "Microarray of primary macrophages transfected with control or NCoR siRNA", "format": "cell-based", "settings": "NCoR siRNA vs control siRNA", "protocol": "To determine how widely the SUMOylation/NCoR-dependent pathway is utilized by PPARγ to repress inflammatory response genes, microarray studies were performed in primary macrophages transfected with control siRNAs or siRNAs directed against NCoR mRNA.", "data": [{"compound": "CN(CCOc1ccc(CC2SC(=O)NC2=O)cc1)c1ccccn1", "note": "(stereo not shown) [rosiglitazone]", "values": [{"measurement": "PPARγ-sensitive genes whose repression by ligand was abolished by knockdown of NCoR", "result": 80, "unit": "%"}]}]}
